Source: ChEMBL document CHEMBL1156506, “Changes to the HIV long terminal repeat and to HIV integrase differentially impact HIV integrase assembly, activity, and the binding of strand transfer inhibitors” (J Biol Chem, 2007)

Tests used:
[1] = tested on: Human immunodeficiency virus; assay: Inhibition of HIV wild type integrase assessed as strand transfer activity using U5 GTAC LTR by scintillation proximity assay relative to wild type LTR; set-up: scale not given: the % may be the effect or the level left; conditions: tested as the 3H-labelled form
[2] = tested on: Human immunodeficiency virus type 1 integrase (Human immunodeficiency virus 1), Q7ZJM1 [Q148R]; assay: Inhibition of HIV recombinant integrase Q148R mutant assessed as strand transfer activity using U5 ApTCA LTR by scintillation proximity assay relative to wild type LTR; set-up: scale not given: the % may be the effect or the level left; conditions: tested as the 3H-labelled form
[3] = Inhibition of HIV wild type integrase DNA complex; set-up: species or system Human immunodeficiency virus
[4] = tested on: Human immunodeficiency virus type 1 integrase (Human immunodeficiency virus 1), Q7ZJM1 [N155H]; assay: Inhibition of HIV recombinant integrase N155H mutant assessed as strand transfer activity using U5 GTCA LTR by scintillation proximity assay relative to wild type LTR; set-up: scale not given: the % may be the effect or the level left; conditions: tested as the 3H-labelled form
[5] = tested on: Human immunodeficiency virus; assay: Binding affinity to HIV wild type integrase using U5 GTCA/CddC LTR relative to wild type LTR; conditions: tested as the 3H-labelled form
[6] = tested on: Human immunodeficiency virus; assay: Inhibition of HIV wild type integrase assessed as specific strand transfer activity using U5 TTCA LTR by scintillation proximity assay relative to wild type LTR; set-up: scale not given: the % may be the effect or the level left; conditions: tested as the 3H-labelled form
[7] = tested on: Human immunodeficiency virus; assay: Inhibition of HIV wild type integrase assessed as strand transfer activity using U5 GTdA LTR by scintillation proximity assay relative to wild type LTR; set-up: scale not given: the % may be the effect or the level left; conditions: tested as the 3H-labelled form
[8] = tested on: Human immunodeficiency virus; assay: Inhibition of HIV wild type integrase assessed as strand transfer activity using U5 GTCACA LTR by scintillation proximity assay relative to wild type LTR; set-up: scale not given: the % may be the effect or the level left; conditions: tested as the 3H-labelled form
[9] = tested on: Human immunodeficiency virus; assay: Inhibition of HIV wild type integrase assessed as strand transfer activity using U5 GGCA LTR by scintillation proximity assay relative to wild type LTR; set-up: scale not given: the % may be the effect or the level left; conditions: tested as the 3H-labelled form
[10] = tested on: Human immunodeficiency virus type 1 integrase (Human immunodeficiency virus 1), Q7ZJM1 [Q148R]; assay: Inhibition of U5 INTCA LTR HIV recombinant integrase Q148R mutant assessed as specific strand transfer activity using by scintillation proximity assay relative to wild type LTR; set-up: scale not given: the % may be the effect or the level left; conditions: tested as the 3H-labelled form
[11] = tested on: Human immunodeficiency virus type 1 integrase (Human immunodeficiency virus 1), Q7ZJM1 [N155H]; assay: Binding affinity to HIV recombinant integrase N155H mutant using U5 GTCA LTR relative to wild type LTR; conditions: tested as the 3H-labelled form
[12] = tested on: Human immunodeficiency virus; assay: Binding affinity to HIV wild type integrase using U5 GTCA LTR relative to wild type LTR; conditions: tested as the 3H-labelled form
[13] = tested on: Human immunodeficiency virus type 1 integrase (Human immunodeficiency virus 1), Q7ZJM1 [N155H]; assay: Inhibition of HIV recombinant integrase N155H mutant assessed as specific strand transfer activity using U5 GdCA LTR by scintillation proximity assay relative to wild type LTR; set-up: scale not given: the % may be the effect or the level left; conditions: tested as the 3H-labelled form
[14] = tested on: Human immunodeficiency virus type 1 integrase (Human immunodeficiency virus 1), Q7ZJM1 [Q148R]; assay: Inhibition of HIV recombinant integrase Q148R mutant assessed as strand transfer activity using U5 INTCA LTR by scintillation proximity assay relative to wild type LTR; set-up: scale not given: the % may be the effect or the level left; conditions: tested as the 3H-labelled form
[15] = tested on: Human immunodeficiency virus type 1 integrase (Human immunodeficiency virus 1), Q7ZJM1 [N155H]; assay: Inhibition of HIV recombinant integrase N155H mutant assessed as strand transfer activity using U5 GTC LTR by scintillation proximity assay relative to wild type LTR; set-up: scale not given: the % may be the effect or the level left; conditions: tested as the 3H-labelled form
[16] = tested on: Human immunodeficiency virus type 1 integrase (Human immunodeficiency virus 1), Q7ZJM1 [Q148R]; assay: Inhibition of U5 GdCA LTR HIV recombinant integrase Q148R mutant assessed as specific strand transfer activity using by scintillation proximity assay relative to wild type LTR; set-up: scale not given: the % may be the effect or the level left; conditions: tested as the 3H-labelled form
[17] = tested on: Human immunodeficiency virus type 1 integrase (Human immunodeficiency virus 1), Q7ZJM1 [Q148R]; assay: Inhibition of HIV recombinant integrase Q148R mutant assessed as strand transfer activity using U5 GdCA LTR by scintillation proximity assay relative to wild type LTR; set-up: scale not given: the % may be the effect or the level left; conditions: tested as the 3H-labelled form
[18] = tested on: Human immunodeficiency virus; assay: Binding affinity to HIV wild type integrase using U5 GCCA LTR relative to wild type LTR; conditions: tested as the 3H-labelled form
[19] = tested on: Human immunodeficiency virus; assay: Binding affinity to HIV wild type integrase using U5 GInCA LTR relative to wild type LTR; conditions: tested as the 3H-labelled form
[20] = tested on: Human immunodeficiency virus; assay: Inhibition of HIV wild type integrase assessed as strand transfer activity usingU5 GTCA/CT LTR by scintillation proximity assay relative to wild type LTR; set-up: scale not given: the % may be the effect or the level left; conditions: tested as the 3H-labelled form
[21] = tested on: Human immunodeficiency virus type 1 integrase (Human immunodeficiency virus 1), Q7ZJM1 [N155H]; assay: Binding affinity to HIV recombinant integrase N155H mutant using U5 GTdA LTR relative to wild type LTR; conditions: tested as the 3H-labelled form
[22] = tested on: Human immunodeficiency virus; assay: Inhibition of HIV wild type integrase assessed as specific strand transfer activity using U5 dTCA LTR by scintillation proximity assay relative to wild type LTR; set-up: scale not given: the % may be the effect or the level left; conditions: tested as the 3H-labelled form
[23] = tested on: Human immunodeficiency virus; assay: Binding affinity to HIV wild type integrase using U5 GTTA LTR relative to wild type LTR; conditions: tested as the 3H-labelled form
[24] = tested on: Human immunodeficiency virus type 1 integrase (Human immunodeficiency virus 1), Q7ZJM1 [Q148R]; assay: Inhibition of HIV recombinant integrase Q148R mutant assessed as strand transfer activity using U5 GTdA LTR by scintillation proximity assay relative to wild type LTR; set-up: scale not given: the % may be the effect or the level left; conditions: tested as the 3H-labelled form
[25] = tested on: Human immunodeficiency virus; assay: Inhibition of HIV wild type integrase assessed as strand transfer activity using U5 GTC LTR by scintillation proximity relative; set-up: scale not given: the % may be the effect or the level left; conditions: tested as the 3H-labelled form
[26] = tested on: Human immunodeficiency virus type 1 integrase (Human immunodeficiency virus 1), Q7ZJM1 [N155H]; assay: Inhibition of HIV recombinant integrase N155H mutant assessed as strand transfer activity using U5 dTCA LTR by scintillation proximity assay relative to wild type LTR; set-up: scale not given: the % may be the effect or the level left; conditions: tested as the 3H-labelled form
[27] = tested on: Human immunodeficiency virus; assay: Binding affinity to HIV wild type integrase using U5 GTGA LTR relative to wild type LTR; conditions: tested as the 3H-labelled form
[28] = tested on: Human immunodeficiency virus; assay: Binding affinity to HIV wild type integrase using U5 INTCA LTR relative to wild type LTR; conditions: tested as the 3H-labelled form
[29] = tested on: Human immunodeficiency virus; assay: Binding affinity to HIV wild type integrase using U5 GTCA/CT LTR relative to wild type LTR; conditions: tested as the 3H-labelled form
[30] = tested on: Human immunodeficiency virus type 1 integrase (Human immunodeficiency virus 1), Q7ZJM1 [N155H]; assay: Inhibition of HIV recombinant integrase N155H mutant assessed as specific strand transfer activity using U5 TTCA LTR by scintillation proximity assay relative to wild type LTR; set-up: scale not given: the % may be the effect or the level left; conditions: tested as the 3H-labelled form
[31] = tested on: Human immunodeficiency virus; assay: Inhibition of HIV wild type integrase assessed as strand transfer activity using U5 GInCA LTR by scintillation proximity assay relative to wild type LTR; set-up: scale not given: the % may be the effect or the level left; conditions: tested as the 3H-labelled form
[32] = tested on: Human immunodeficiency virus; assay: Inhibition of HIV wild type integrase assessed as strand transfer activity using U5 GACA LTR by scintillation proximity assay relative to wild type LTR; set-up: scale not given: the % may be the effect or the level left; conditions: tested as the 3H-labelled form
[33] = tested on: Human immunodeficiency virus type 1 integrase (Human immunodeficiency virus 1), Q7ZJM1 [N155H]; assay: Inhibition of HIV recombinant integrase N155H mutant assessed as strand transfer activity using U5 TTCA LTR by scintillation proximity assay relative to wild type LTR; set-up: scale not given: the % may be the effect or the level left; conditions: tested as the 3H-labelled form
[34] = tested on: Human immunodeficiency virus; assay: Binding affinity to HIV wild type integrase using U5 GTCA/CC LTR relative to wild type LTR; conditions: tested as the 3H-labelled form
[35] = tested on: Human immunodeficiency virus type 1 integrase (Human immunodeficiency virus 1), Q7ZJM1 [N155H]; assay: Inhibition of HIV recombinant integrase N155H mutant assessed as strand transfer activity using U5 GdCA LTR by scintillation proximity assay relative to wild type LTR; set-up: scale not given: the % may be the effect or the level left; conditions: tested as the 3H-labelled form
[36] = tested on: Human immunodeficiency virus; assay: Inhibition of HIV wild type integrase assessed as specific strand transfer activity using U5 GGCA LTR by scintillation proximity assay relative to wild type LTR; set-up: scale not given: the % may be the effect or the level left; conditions: tested as the 3H-labelled form
[37] = tested on: Human immunodeficiency virus type 1 integrase (Human immunodeficiency virus 1), Q7ZJM1 [Q148R]; assay: Binding affinity to HIV recombinant integrase Q148R mutant using U5 INTCA LTR relative to wild type LTR; conditions: tested as the 3H-labelled form
[38] = tested on: Human immunodeficiency virus; assay: Binding affinity to HIV wild type integrase using U5 GTAC LTR relative to wild type LTR; conditions: tested as the 3H-labelled form
[39] = tested on: Human immunodeficiency virus type 1 integrase (Human immunodeficiency virus 1), Q7ZJM1 [Q148R]; assay: Inhibition of U5 ApTCA LTR HIV recombinant integrase Q148R mutant assessed as specific strand transfer activity using by scintillation proximity assay relative to wild type LTR; set-up: scale not given: the % may be the effect or the level left; conditions: tested as the 3H-labelled form
[40] = tested on: Human immunodeficiency virus; assay: Inhibition of HIV wild type integrase assessed as strand transfer activity using U5 TTCA LTR by scintillation proximity assay relative to wild type LTR; set-up: scale not given: the % may be the effect or the level left; conditions: tested as the 3H-labelled form
[41] = tested on: Human immunodeficiency virus type 1 integrase (Human immunodeficiency virus 1), Q7ZJM1 [N155H]; assay: Binding affinity to HIV recombinant integrase N155H mutant using U5 GTC LTR relative to wild type LTR; conditions: tested as the 3H-labelled form
[42] = tested on: Human immunodeficiency virus type 1 integrase (Human immunodeficiency virus 1), Q7ZJM1 [Q148R]; assay: Binding affinity to HIV recombinant integrase Q148R mutant using U5 TTCA LTR relative to wild type LTR; conditions: tested as the 3H-labelled form
[43] = tested on: Human immunodeficiency virus; assay: Inhibition of HIV wild type integrase assessed as specific strand transfer activity using U5 GTCA LTR by scintillation proximity assay relative to wild type LTR; set-up: scale not given: the % may be the effect or the level left; conditions: tested as the 3H-labelled form
[44] = tested on: Human immunodeficiency virus; assay: Binding affinity to HIV wild type integrase using U5 dTCA LTR relative to wild type LTR; conditions: tested as the 3H-labelled form

In the case of `Cn1c(N2CCCCS2(=O)=O)nc(C(=O)NCc2ccc(F)cc2)c(O)c1=O` [BMS-707035], the Activity [1] is reported as less than 25%, the Activity [2] is reported as 0.4% and the Ki [3] is reported as 17 nM. The Activity [4] was 84%, the Activity [5] was 75% and the Activity [6] was 154%. It also gave an Activity [7] of 32%, an Activity [8] of 75% and an Activity [9] of less than 25%. It also gave an Activity [10] greater than 12%, an Activity [11] of 10% and an Activity [12] of 75%. It also gave an Activity [13] of 62%, an Activity [14] of 0.6% and an Activity [15] of 90%. It also gave an Activity [16] of 3%, an Activity [17] of 0.6% and an Activity [18] of 75%. It also gave an Activity [19] of 28%, an Activity [20] of less than 25% and an Activity [21] of 12%. It also gave an Activity [22] of 67%, an Activity [23] of 51% and an Activity [24] of 2.5%. For the same compound, the Activity [25] was 109%, the Activity [26] was 2% and the Activity [27] was 74%. For the same compound, the Activity [28] was 62%, the Activity [29] was less than 25% and the Activity [30] was greater than 20%. It also gave an Activity [31] of 70%, an Activity [32] of 75% and an Activity [33] of 4%. It also gave an Activity [34] of 75%, an Activity [35] of 33% and an Activity [36] of 8%. It also gave an Activity [37] of 2%, an Activity [38] of less than 25% and an Activity [39] greater than 8%. The Activity [40] was 25%, the Activity [41] was 4% and the Activity [42] was 1%. It also gave an Activity [43] of 100% and an Activity [44] of 15%.
